{"source": "paper PMC4718506", "about": "(Bioscience Reports, 2016)", "key": {"glucagon receptor": {"test_system": "glucagon receptor", "settings": "cited from earlier work", "excerpt": "(§1) This putative salt bridge may play an important structural role, the disruption of which could result in a disturbance of the agonist-binding site formed by other residues in ECL2."}, "[1]": {"test_system": "glucagon receptor with upper half replaced by GLP-1R", "settings": "upper half of glucagon receptor replaced with GLP-1R; cited from earlier work"}, "[2]": {"test_system": "glucagon receptor mutant Asp-385^7.41–Glu", "settings": "Asp-385^7.41–Glu glucagon receptor; cited from earlier work", "excerpt": "[…]. These Arg-310^5. ..."}, "[3]": {"test_system": "hGLP-1R double-Ala mutants (four sites, TM4/ECL2/TM5)", "assay": "Radioligand binding, double-Ala scan", "parameters": "species or system human", "settings": "75 pM 125I-GLP-1, >10,000-fold unlabelled GLP-1 competitor; four sites of double-Ala scan; data in Table S2", "method": "Flp-In HEK293 cells, cultured to confluence on five 160-cm^2 Petri dishes (pre-coated with poly-D-lysine), were washed with PBS, followed by the addition of 15 ml of ice-cold sterile double distilled water to induce cell lysis. Following 5 min incubation on ice, the ruptured cells were thoroughly washed with ice-cold PBS before being scraped from the plates and pelleted by centrifugation in a bench-top centrifuge (13,000 g for 30 min). The crude membrane pellet was resuspended in 1 ml membrane-binding solution (MBS; 50 mM HEPES pH 7.4, 2.5 mM CaCl2, 5 mM MgCl2, 0.2% BSA) and forced through a 23G needle. Aliquots (0.1 ml) were snap-frozen in liquid nitrogen and stored at −70°C. When required for assay, membranes were slowly thawed on ice before diluting to a concentration that gave total radioligand binding of <10% total counts added. […] Assays were carried out for 1 h in MultiScreen 96-well Filtration Plates (Glass fibre filters, 0.65 μm pore size, Millipore) pre-soaked in 1% non-fat milk/PBS. After the incubation, membrane-associated radioligand was harvested by transferring the assay mixture to the filtration plate housed in a vacuum manifold. […]\nBinding and cAMP assays were carried out with triplicate values at each ligand concentration and with each assay being repeated at least three times. The resultant data were analysed using Prism 6 (GraphPad Software Inc.)."}, "GLP-1R [4]": {"test_system": "GLP-1R", "settings": "truncation of first two residues of GLP-1; cited from earlier work"}, "GLP-1R [5]": {"test_system": "GLP-1R", "settings": "truncation of first two residues of GLP-1; cited from earlier work", "remark": "listed apart in the source"}, "[6]": {"test_system": "GLP-1R mutant Arg-190^2.60–Ala", "settings": "cited from earlier work"}, "[7]": {"test_system": "GLP-1R mutant Arg-190^2.60–Ala", "settings": "cited from earlier work", "remark": "listed apart in the source"}, "[8]": {"test_system": "glucagon receptor with region (ECL2 and neighbouring helical regions) replaced by GLP-1R equivalent", "settings": "ECL2 and neighbouring helical regions replaced with GLP-1R equivalent; cited from earlier work", "excerpt": "as §1"}}, "note": "Where no end group is shown, it is not given here."}
{"substance": "Glu-3–glucagon: native glucagon has Gln-3*", "values": [{"measurement": "affinity and potency", "setting": "glucagon receptor", "value": "reduced affinity and potency"}, {"measurement": "affinity and potency", "setting": "[1]", "value": "could be rescued"}]}
{"substance": "glucagon: native glucagon", "values": [{"measurement": "effect on affinity and potency", "setting": "[2]", "value": "reducing the affinity and potency"}]}
{"substance": "^125I-GLP-1: radioligand, kind gift of Novo Nordisk", "values": [{"measurement": "specific binding", "setting": "[3]", "value": "reduced specific binding"}]}
{"substance": "GLP-1(9–36)amide: Truncation of the first two residues of GLP-1 (EGTFTSDVSSYLEGQAAKEFIAWLVKGR-NH2; UniProt P01275 100-127, looked up, fragment)", "values": [{"measurement": "affinity", "setting": "GLP-1R [4]", "value": "reduced affinity"}, {"measurement": "efficacy", "setting": "GLP-1R [5]", "value": "substantial loss of efficacy"}]}
{"substance": "Ala-2–glucagon: Ser-2* of glucagon replaced (equivalent of Ala-8* in GLP-1)", "values": [{"measurement": "effect on affinity and potency", "setting": "[2]", "value": "improve the affinity and potency"}]}
{"substance": "oxyntomodulin: has Gln at the 3rd position rather than Glu", "values": [{"measurement": "effect on affinity", "setting": "[6]", "value": "did not reduce oxyntomodulin affinity or efficacy"}, {"measurement": "effect on efficacy", "setting": "[7]", "value": "did not reduce oxyntomodulin affinity or efficacy"}]}
{"substance": "Ser-12–glucagon: Lys-12* in native glucagon, equivalent of Ser-18* in GLP-1", "values": [{"measurement": "affinity and potency", "setting": "[8]", "value": "could be rescued"}, {"measurement": "affinity and potency", "setting": "glucagon receptor", "value": "reduced affinity and potency"}]}
